{
  "source": "patent US20190192524A1",
  "about": "“Modulators of Caspase-6” (The University of British Columbia, priority 2014, published 2019)",
  "key": {"caspase-6": {"biological_target": "T1, caspase-6 (Mus musculus, UniProt O08738)", "T1 construct": "endogenous in cells; host or cells: primary cortical neurons from FVB/N mice", "T1 sequence (O08738 6-276)": "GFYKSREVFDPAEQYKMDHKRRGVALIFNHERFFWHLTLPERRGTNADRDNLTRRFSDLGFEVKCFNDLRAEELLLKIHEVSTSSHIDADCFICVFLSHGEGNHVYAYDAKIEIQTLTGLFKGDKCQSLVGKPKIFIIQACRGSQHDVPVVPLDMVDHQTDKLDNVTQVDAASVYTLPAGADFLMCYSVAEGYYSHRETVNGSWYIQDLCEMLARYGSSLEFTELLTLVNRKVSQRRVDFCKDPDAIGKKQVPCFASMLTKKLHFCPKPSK", "experiment": "Lamin A cleavage in primary cortical neuronal culture treated with camptothecin", "type": "cell-based, FVB/N mice", "conditions": "10 uM compound; 10 uM camptothecin for 30 h", "experimental": "Cortical neuronal cultures from FVB mice were prepared as described (Metzler et al, J Neurosci (2007) 27(9):2298). At day 10 in vitro, cells were treated with camptothecin, and after 30 h harvested by scraping in PBS supplemented with 1× complete protease inhibitor (Roche) and 4 mM Pefabloc. Cells were lysed by suspension in lysis buffer (50 mM Tris pH8, 150 mM NaCl, 1% Igepal, supplemented with 1× complete protease inhibitor (Roche) and 4 mM Pefabloc). Lysates were incubated on ice for 10 min, vortexed and sonicated for 4 sec before centrifugation at 21 000×g for 10 min at 4° C. Supernatants were saved, protein concentration determined with the Biorad DC assay and quantitative assessment of cleaved lamin A in neuronal lysates was performed with the Mesoscale ELISA method as described in Ehrnhoefer et al. PLoS One, 2011. 6(11):e27680.\nNext, it was determined whether the PG-3d compound could inhibit caspase-6 within neuronal cells in an in vitro neuronal system which may be more relevant for the testing of therapeutics for neurodegeneration. Briefly, primary cortical neuronal cultures from FVB/N mice were treated with 10 uM camptothecin for 30 h starting at DIV10 in the presence or absence of 10 uM of the PG-3d compound."}, "[1]": {"biological_target": "T2, full-length human caspase-6 (Homo sapiens, UniProt P55212)", "T2 construct": "DDK-tag (C); expressed in transfected cells; host or cells: COS-7", "T2 sequence (P55212 with tags, fused parts or gaps)": "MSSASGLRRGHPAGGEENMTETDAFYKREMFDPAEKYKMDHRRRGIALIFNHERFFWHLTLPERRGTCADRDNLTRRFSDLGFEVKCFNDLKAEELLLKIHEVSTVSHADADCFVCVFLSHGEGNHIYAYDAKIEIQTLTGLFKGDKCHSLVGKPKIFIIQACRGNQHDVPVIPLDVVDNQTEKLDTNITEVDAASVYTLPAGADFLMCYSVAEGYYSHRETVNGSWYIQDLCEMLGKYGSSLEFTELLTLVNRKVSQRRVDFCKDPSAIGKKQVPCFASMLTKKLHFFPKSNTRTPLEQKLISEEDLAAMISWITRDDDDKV", "experiment": "Western blot of Htt fragments in COS-7 cells co-transfected with Htt 1-1212AA and full-length caspase-6", "type": "cell-based", "conditions": "10 uM compound, 24 hr, vs DMSO", "experimental": "COS-7 cells were co-transfected with the 1212 amino acid HTT fragment (SEQ ID NO: 3) and the full length human caspase-6 enzyme (SEQ ID NO:4). The co-transfected cells were exposed to either 10 uM of the PG3d compound, 3 uM of the Q-VD-Oph pan-caspase inhibitor or were treated with DMSO as a control. An aliquot of the cell lysates were subjected to Western blotting to detect HTT fragments with the Htt antibody 2166 (Millipore) and the presence of caspase-6 was detected using the HD91 antibody (Ehrnhoefer et al, HMG, 2014. 23(3):717-29). The remaining cell lysates (500 ug protein) were immunoprecipitated with 5 ug of Caspase-6 antibody for 16 hrs at 4 C. The immunoprecipitated proteins were then applied to acrylamide gels and immunoblotted to detect either the HTT fragments or the presence of the active caspase 6 enzyme using the antibodies described above.\nCos-7 cells were co-transfected with Htt 1-1212AA (SEQ ID NO:3) and full-length human caspase-6 (SEQ ID NO:6), and exposed to either the pan-caspase inhibitor Q-VD-OPh, the PG3d compound or DMSO as a negative control. As shown in the upper panel of FIG. 9A, control cells that received DMSO alone (lanes labelled n.t.) show the presence of the Htt 1212AA protein and the Htt proteolytic cleavage fragments including the 586, 552 and 513 amino acid fragments. […]"}},
  "data": [
    {"compound": "O=c1oc(C#Cc2ccccc2)nc(O)c1Cc1ccccc1", "note": "[PG-3d, 5-Benzyl-4-hydroxy-2-(phenylethynyl)-6H-1,3-oxazin-6-one]", "values": [
      {"measurement": "caspase-6 activity (cleaved lamin A)", "setting": "caspase-6", "result": "significantly reduces"},
      {"measurement": "level of the 586AA Htt fragment", "setting": "[1]", "result": "reduction"}
    ]}
  ]
}
